Patent US20100036088A1, “Selective poly-N-substituted glycine antibiotics” (priority 2008, published 2010)
≈ marks a conversion by molar mass, not a printed value. Like-named read-outs stand apart in the source and are kept apart here. Numbered stars: 1 amine (or outer) side, 2 acyl side, 3 side chain; on linkers, the order of the positions; unused ones are H or OH. Square brackets hold non-standard residues; d marks the D form. Peptide text beside a SMILES is read from it. X1 = CC(C)[C@H](C)N(CC(=O)[*:2])[*:1]; Nspe = C[C@H](NCC(=O)O)c1ccccc1; Nphe = O=C(O)CNCc1ccccc1; Nlys = NCCCCNCC(=O)O

What was measured:
[1] = MTS assay, metabolic inhibition; type: cell-based, mouse
Method in brief: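 NIH/3T3 cells seeded at 5,000 per well, grown a day, then exposed to serially diluted peptoids in HBSS together with MTS reagent. Absorbance at 490 nm read after 3 hours at 37° C.; mean of six replicates.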

[2] = system: Staphylococcus aureus ATCC 29213; type: cell-based; details: for MIC S. aureus ATCC 29213: Table 7A
Experimental: (§1) Antibacterial assays. MICs were determined according to CLSI M7-A6 protocols in a 96-well microtiter plate. In test wells, 50 μL bacterial inoculum (5×10^5 CFU/ml) in Mueller-Hinton broth (MHB) was added to 50 μL peptoid solution in MHB (prepared by 1:2 serial dilutions). Positive controls contained 50 μL inoculum and 50 μL MHB without peptoid. […] MIC values reported were reproducible between three independent experimental replicates, each consisting of two parallel trials. Broad-spectrum antimicrobial susceptibility testing was performed against BSL2 pathogens by Nova Biologicals, Inc. (Conroe, Tex.).
(§2) Broad-spectrum antibacterial assays. MICs of compounds were determined by microdilution procedure in Mueller-Hinton broth (MHB) in accordance with CLSI M7-A6 protocols in a manner similar to that described for the screen antibacterial assays. Inoculated microtiter plates were incubated at 35° C. for 24 hours prior to the result being recorded. Four ATCC strains that were used as standards are recommended by CLSI: Pseudomonas aeruginosa ATCC 27853, Escherichia coli ATCC 25922, Staphylococcus aureus ATCC 29213 and Enterococcus faecalis ATCC 29212. Other strains from the ATCC collection include Proteus vulgaris ATCC 49132, Proteus mirabilis ATCC 35659, Klebsiella pneumoniae ATCC 33495, Enterobacter aerogenes ATCC 35029 and Serratia marcescens ATCC 13880. S. aureus NRS100 (COL) is a well characterized methicillian-resistant S. aureus (MRSA) strain. The strains S. aureus VAN1 and S. aureus VAN2, vancomycin-resistant MRSA strains that were isolated in Michigan and Pennsylvania, were the first vancomycin-resistant strains clinically isolated. S. aureus NRS119 and S. aureus NRS120 are linezolid-resistant isolates from the Network on Antimicrobial Resistance in S. aureus (NARSA) collection. E. faecalis 99 and E. faecium 106 are vancomycin-resistant enterococcal strains.

[3] = system: Enterobacter aerogenes ATCC 35029; type: cell-based; details: for MIC E. aerogenes ATCC 35029: Table 7A
Experimental: as §1, §2

[4] = system: Staphylococcus aureus NRS100 (COL); type: cell-based; details: for MIC S. aureus NRS100 (COL): Table 7A, MRSA
Experimental: as §1, §2

[5] = system: Staphylococcus aureus VAN1; type: cell-based; details: for MIC S. aureus VAN1: Table 7A, MRSA, vancomycin-resistant
Experimental: as §1, §2

[6] = system: Staphylococcus aureus NRS119; type: cell-based; details: for MIC S. aureus NRS119: Table 7A, linezolid-resistant
Experimental: as §1, §2

[7] = system: Serratia marcescens ATCC 13880; type: cell-based
Experimental: as §1, §2

[8] = RP-HPLC elution solvent composition as measure of molecular hydrophobicity; type: physicochemical; details: Table 5; average of three injections; linear 5%-95% acetonitrile/water (0.1% TFA) over 45 minutes, C18 column; measure of hydrophobicity
Excerpt: An initial set of 15 ampetoid analogs was synthesized to determine whether peptoids are affected by structural and sequence modifications in a manner consistent with AMP activities. The designs for ampetoids in this library were derived from two antibacterial and selective amphipathic dodecamers, 1 and 2. Peptoid 1 [H-(Nlys-Nspe-Nspe)4—NH2] is composed of 2/3 Nspe, the peptoid analog of phenylalanine, and 1/3 Nlys, the peptoid analog of lysine (see FIG. 1 for the structures of representative peptoid monomers and corresponding N-substituents). Peptoid 2 [H-(Nlys-Nssb-Nspe)4—NH2] contains 1/3 isoleucine-like Nssb monomers in place of Nspe. The variant sequences were designed to effect changes in chirality, length, hydrophobicity, charge, and amphipathicity. All of these compounds were tested for antibacterial activity against representative BSL1 Gram-negative (E. coli JM109) and Gram-positive (B. subtilis BR151) bacterial strains. As an initial measure of selectivity, the lytic activity of the peptoids was determined against human erythrocytes. Table 1 summarizes the sequences synthesized, the solvent composition at RP-HPLC elution as a relative measure of molecular hydrophobicity, and antibacterial and hemolytic activities.
Following synthesis, peptoid oligomers can be cleaved from the resin, simultaneously removing the tert-butoxycarbonyl (Boc) protecting group from Nlys residues, by treatment with 10 ml 2,2,2-trifluoroacetic acid (TFA)/triisopropylsilane/H2O (95:2.5:2.5 by volume) for 30 min. The cleavage mixture is then diluted with 25 ml 50% aqueous acetonitrile, frozen, and lyophilized. Dilution and lyophilization is repeated twice more in order to remove excess TFA. Subsequent to cleavage, peptoids are each purified to >97% homogeneity by preparative scale reversed-phase HPLC using a Waters Prep LC 4000 system, with Waters 2487 dual-wavelength UV detection, and gradient elution (solvent A, 0.1 vol % trifluoroacetic acid (TFA) in water; solvent B, 0.1 vol % TFA in acetonitrile) through a Vydac (Hysperia, Calif.) 214TP101550 C4 peptide/protein column (10-15 μm, 300 Å, 5×25 cm). Following prep HPLC, peptoid purities and crude yields were determined from analytical scale HPLC, performed with a Waters 2695 Separations Module with a Waters 2487 dual-wavelength UV detector and gradient elution (solvent A, 0.1 vol % TFA in water; solvent B, 0.1 vol % TFA in acetonitrile) through a Vydac C4 214TP53 peptide/protein column (5 μm, 300 Å, 3.2×250 mm). The precise gradient employed for HPLC depended on the identity and hydrophobicity of the oligomer in question. All analytical HPLC was performed at 0.5 ml/min flow and 58° C. Preparative HPLC was performed at 50 ml/min flow and room temperature.

| SMILES | IC50 [1] [µM] | MIC Staphylococcus aureus ATCC 29213 ([2]; ATCC 29213) [µM] | MIC Enterobacter aerogenes ATCC 35029 ([3]; ATCC 35029) [µM] | MIC Staphylococcus aureus NRS100 (COL) ([4]; NRS100 (COL)) [µM] | MIC Staphylococcus aureus VAN1 ([5]; VAN1) [µM] | MIC Staphylococcus aureus NRS119 ([6]; NRS119) [µM] | MIC S. marcescens ATCC 13880 ([7]; ATCC 13880) [µg/mL] | MIC Serratia marcescens ATCC 13880 ([7]; ATCC 13880) [µM] | HPLC elution (% ACN) [8] [% ACN] | MIC S. aureus ATCC 29213 [2] [µg/mL] | MIC E. aerogenes ATCC 35029 [3] [µg/mL] | MIC S. aureus NRS100 (COL) [4] [µg/mL] | MIC S. aureus VAN1 [5] [µg/mL] | MIC S. aureus NRS119 [6] [µg/mL] | further results |
| --- | --- | --- | --- | --- | --- | --- | --- | --- | --- | --- | --- | --- | --- | --- | --- |
| C[C@@H](c1ccccc1)N(CC(N)=O)C(=O)CN(C(=O)CN(CCCCN)C(=O)CN(C(=O)CN(C(=O)CN(CCCCN)C(=O)CN(C(=O)CN(C(=O)CN(CCCCN)C(=O)CN(C(=O)CN(C(=O)CNCCCCN)[C@@H](C)c1ccccc1)[C@@H](C)c1ccccc1)[C@@H](C)c1ccccc1)[C@@H](C)c1ccccc1)[C@@H](C)c1ccccc1)[C@@H](C)c1ccccc1)[C@@H](C)c1ccccc1 [compound 1, H-(NLys-Nspe-Nspe)4-NH2] (H-[Nlys][Nspe][Nspe][Nlys][Nspe][Nspe][Nlys][Nspe][Nspe][Nlys][Nspe][Nspe]-NH2) |  |  |  |  |  |  |  |  |  |  |  |  |  |  | IC50 ([1]; Table 6, NIH 3T3 mouse fibroblast cells): 5.1 µM; MIC Staphylococcus aureus ATCC 29213 ([2]; Table 4, Gram +): 2.2 µM; MIC Enterobacter aerogenes ATCC 35029 ([3]; Table 4, Gram −): 8.8 µM (≈ 16 µg/mL); MIC Staphylococcus aureus NRS100 (COL) ([4]; Table 4, Gram +): 2.2 µM; MIC Staphylococcus aureus VAN1 ([5]; Table 4, vancomycin resistant): 2.2 µM (≈ 4 µg/mL); MIC Staphylococcus aureus NRS119 ([6]; Table 4, Gram +): 2.2 µM; MIC Serratia marcescens ATCC 13880 ([7]; Table 4, Gram −): 70.4 µM (≈ 128 µg/mL) |
| C[C@@H](c1ccccc1)N(CC(N)=O)C(=O)CN(C(=O)CN(CCCCN)C(=O)CN(C(=O)CN(C(=O)CN(CCCCN)C(=O)[C@@H]1CCCN1C(=O)CN(C(=O)CN(CCCCN)C(=O)CN(C(=O)CN(C(=O)CNCCCCN)[C@@H](C)c1ccccc1)[C@@H](C)c1ccccc1)[C@@H](C)c1ccccc1)[C@@H](C)c1ccccc1)[C@@H](C)c1ccccc1)[C@@H](C)c1ccccc1 [1-Pro6, H-Nlys-Nspe-Nspe-Nlys-Nspe-L-Pro-(Nlys-Nspe-Nspe)2-NH2] (H-[Nlys][Nspe][Nspe][Nlys][Nspe]P[Nlys][Nspe][Nspe][Nlys][Nspe][Nspe]-NH2) | 18 | 4.6 (≈ 8.07 µg/mL) | 72.9 (≈ 128 µg/mL) | 4.6 (≈ 8.07 µg/mL) | 4.6 (≈ 8.07 µg/mL) | 9.1 (≈ 16 µg/mL) | >128 | >72.9 |  |  |  |  |  |  |  |
| NCCCCNCC(=O)N(CC(=O)N(CC(=O)N(CCCCN)CC(=O)N(CC(=O)N(CC(=O)N(CCCCN)CC(=O)N(CC(=O)N(CC(=O)N(CCCCN)CC(=O)N(CC(=O)N(CC(N)=O)Cc1ccccc1)Cc1ccccc1)Cc1ccccc1)Cc1ccccc1)Cc1ccccc1)Cc1ccccc1)Cc1ccccc1)Cc1ccccc1 [1achiral, H-(Nlys-Npm-Npm)4-NH2] (H-[Nlys][Nphe][Nphe][Nlys][Nphe][Nphe][Nlys][Nphe][Nphe][Nlys][Nphe][Nphe]-NH2) | 16 | 4.7 (≈ 8.02 µg/mL) | 75.0 (≈ 128 µg/mL) | 4.7 (≈ 8.02 µg/mL) | 4.7 (≈ 8.02 µg/mL) | 9.4 (≈ 16 µg/mL) | >128 | >75 | 59.8 | 8 (≈ 4.69 µM) | 128 (≈ 75 µM) | 8 (≈ 4.69 µM) | 8 (≈ 4.69 µM) | 16 (≈ 9.37 µM) |  |
| CC(C)[C@H](C)N(CC(=O)N(CC(=O)N(CCCCN)CC(=O)N(CC(=O)N(CC(=O)N(CCCCN)CC(=O)N(CC(=O)N(CC(=O)N(CCCCN)CC(=O)N(CC(=O)N(CC(N)=O)[C@@H](C)c1ccccc1)[C@@H](C)C(C)C)[C@@H](C)c1ccccc1)[C@@H](C)C(C)C)[C@@H](C)c1ccccc1)[C@@H](C)C(C)C)[C@@H](C)c1ccccc1)C(=O)CNCCCCN [1-Nsdp2,5,8,11, H-(Nlys-Nsdp-Nspe)4-NH2] (H-[Nlys][X1][Nspe][Nlys][X1][Nspe][Nlys][X1][Nspe][Nlys][X1][Nspe]-NH2) | 20 | 4.8 (≈ 8.08 µg/mL) | 19.0 (≈ 32 µg/mL) | 4.8 (≈ 8.08 µg/mL) | 4.8 (≈ 8.08 µg/mL) | 9.5 (≈ 16 µg/mL) | >128 | >76.0 | 63.8 | 8 (≈ 4.75 µM) | 32 (≈ 19 µM) | 8 (≈ 4.75 µM) | 8 (≈ 4.75 µM) | 16 (≈ 9.51 µM) |  |
